Assay results taken from patent US8476265B2, “Compounds-801” (AstraZeneca AB, priority 2010, dated 2013).

How the values were obtained:
Adrenergic β2 = target: T1, Adrenergic β2 (Homo sapiens, UniProt P07550); assay: Adrenergic β2 mediated cAMP production in H292 cells (AlphaScreen), concentration response; assay type: cell-based; settings: for EC50: 60 min, 300 μM rolipram, read-out: β2 pEC50 (converted); for β2 Intrinsic Activity: fraction relative to the maximum activity determined for formoterol
T1 construct: Adherent H292 cells are removed from tissue culture flasks by treatment with Accutase™ cell detachment solution; endogenous in cells; host or cells: H292 cells
Procedure, shortened: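 Intracellular cAMP in lysates read by AlphaScreen, calibrated with cAMP standards; curves fitted for pEC50, with intrinsic activity as a fraction of formoterol's maximum. Agonist exposure 60 min at room temperature after 10 min rolipram (300 μM final), 1% DMSO, HEPES-buffered HBSS pH 7.4.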

[1] = target: T2, human muscarinic acetylcholine M3 receptor (Homo sapiens, UniProt P20309); assay: Muscarinic 3 receptor binding assay ([3H]NMS competition, SPA), pIC50; settings: [3H]NMS 0.1 nM, CHO-K1 cell membranes expressing human M3 receptor
T2 construct: expressed in transfected cells; host or cells: CHO-K1 (Chinese Hamster Ovary) cell membranes
Procedure, shortened: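 SPA beads precoated with human M3-expressing CHO-K1 membranes were incubated 16 h at room temperature with serially diluted compound and 0.1 nM [3H]NMS (pH 7.4 HEPES buffer, MgCl2, BSA, 1% DMSO). Atropine (1 μM) defined non-specific binding; pIC50 is the 50% reduction in specific binding.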

T2 sequence (P20309 whole entry): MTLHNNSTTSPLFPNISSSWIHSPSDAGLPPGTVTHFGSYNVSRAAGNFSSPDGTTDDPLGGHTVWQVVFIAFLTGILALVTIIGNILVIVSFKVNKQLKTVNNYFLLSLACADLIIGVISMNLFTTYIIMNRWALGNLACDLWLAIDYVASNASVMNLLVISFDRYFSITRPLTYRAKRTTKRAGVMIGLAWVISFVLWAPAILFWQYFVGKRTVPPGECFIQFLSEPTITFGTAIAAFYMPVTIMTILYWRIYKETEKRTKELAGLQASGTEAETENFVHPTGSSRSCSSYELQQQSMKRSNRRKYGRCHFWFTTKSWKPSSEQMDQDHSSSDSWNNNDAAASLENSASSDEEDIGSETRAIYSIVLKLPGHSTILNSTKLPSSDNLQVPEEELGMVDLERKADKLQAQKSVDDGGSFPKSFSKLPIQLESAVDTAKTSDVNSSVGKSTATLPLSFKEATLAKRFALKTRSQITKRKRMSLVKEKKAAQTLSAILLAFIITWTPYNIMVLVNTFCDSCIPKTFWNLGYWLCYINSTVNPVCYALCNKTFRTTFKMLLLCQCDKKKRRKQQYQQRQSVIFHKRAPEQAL
T1 sequence (P07550 whole entry): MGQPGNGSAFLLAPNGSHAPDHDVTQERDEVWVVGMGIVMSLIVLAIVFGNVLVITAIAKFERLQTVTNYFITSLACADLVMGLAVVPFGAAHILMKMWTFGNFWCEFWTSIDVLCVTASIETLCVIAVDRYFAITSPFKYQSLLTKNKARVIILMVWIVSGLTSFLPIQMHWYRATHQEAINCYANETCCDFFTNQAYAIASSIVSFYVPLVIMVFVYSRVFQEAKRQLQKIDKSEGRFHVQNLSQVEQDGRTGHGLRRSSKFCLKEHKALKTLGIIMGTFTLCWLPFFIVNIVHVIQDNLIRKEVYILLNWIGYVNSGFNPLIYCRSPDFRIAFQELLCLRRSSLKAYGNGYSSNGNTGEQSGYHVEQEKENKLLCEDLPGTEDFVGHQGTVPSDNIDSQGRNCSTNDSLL

Compound	EC50 (Adrenergic β2)	β2 Intrinsic Activity (Adrenergic β2)	IC50 [1]
CCN(CCNCCc1ccc(O)c2[nH]c(=O)sc12)C(=O)CCOCCc1ccc(CCN2CCC3(CC2)CN(C(=O)c2csc(C(C)C)n2)CCO3)s1 [Example 52, N-Ethyl-N-(2-(2-(4-hydroxy-2-oxo-2,3-dihydrobenzo[d]thiazol-7-yl)ethylamino)ethyl)-3-(2-(5-(2-(4-(2-isopropylthiazole-4-carbonyl)-1-oxa-4,9-diazaspiro[5.5]undecan-9-yl)ethyl)thiophen-2-yl)ethoxy)propanamide ditrifluoroacetate]	12.6 nM	0.9	1.58 nM
CC(C)c1nc(C(=O)N2CCOC3(CCN(CCOc4cccc(CCOCCC(=O)N(CCNCCc5ccc(O)c6c5OCC(=O)N6)C5CCCCC5)c4)CC3)C2)cs1 [Example 53, N-Cyclohexyl-N-(2-(2-(5-hydroxy-3-oxo-3,4-dihydro-2H-benzo[b][1,4]oxazin-8-yl)ethylamino)ethyl)-3-(3-(2-(4-(2-isopropylthiazole-4-carbonyl)-1-oxa-4,9-diazaspiro[5.5]undecan-9-yl)ethoxy)phenethoxy)propanamide ditrifluoroacetate]	20 nM	1.0	7.94 nM
CC(C)c1nc(C(=O)N2CCOC3(CCN(Cc4cccc(SCCCOCCC(=O)N(CCNCCc5ccc(O)c6c5OCC(=O)N6)C5CCCC5)c4)CC3)C2)cs1 [Example 54, N-Cyclopentyl-N-(2-(2-(5-hydroxy-3-oxo-3,4-dihydro-2H-benzo[b][1,4]oxazin-8-yl)ethylamino)ethyl)-3-(3-(3-((4-(2-isopropylthiazole-4-carbonyl)-1-oxa-4,9-diazaspiro[5.5]undecan-9-yl)methyl)phenylthio)propoxy)propanamide ditrifluoroacetate]	100 nM	0.9	0.1 nM
CC(C)c1nc(C(=O)N2CCOC3(CCN(Cc4cccc(SCCOCCC(=O)N(C)CCNCCc5ccc(O)c6[nH]c(=O)sc56)c4)CC3)C2)cs1 [Example 55, N-(2-(2-(4-Hydroxy-2-oxo-2,3-dihydrobenzo[d]thiazol-7-yl)ethylamino)ethyl)-3-(2-(3-((4-(2-isopropylthiazole-4-carbonyl)-1-oxa-4,9-diazaspiro[5.5]undecan-9-yl)methyl)phenylthio)ethoxy)-N-methylpropanamide ditrifluoroacetate]	100 nM	0.6	0.126 nM
CC(C)c1nc(C(=O)N2CCOC3(CCN(Cc4csc(CCOCCC(=O)N(CCNCCc5ccc(O)c6c5OCC(=O)N6)C5CCCCC5)c4)CC3)C2)cs1 [Example 56, N-Cyclohexyl-N-(2-(2-(5-hydroxy-3-oxo-3,4-dihydro-2H-benzo[b][1,4]oxazin-8-yl)ethylamino)ethyl)-3-(2-(4-((4-(2-isopropylthiazole-4-carbonyl)-1-oxa-4,9-diazaspiro[5.5]undecan-9-yl)methyl)thiophen-2-yl)ethoxy)propanamide ditrifluoroacetate]	200 nM	1.2	0.0631 nM
CC(C)c1nc(C(=O)N2CCOC3(CCN(Cc4cccc(CCCOCCC(=O)N(CCNCCc5ccc(O)c6c5OCC(=O)N6)C5CCCCC5)c4)CC3)C2)cs1 [Example 57, N-Cyclohexyl-N-(2-(2-(5-hydroxy-3-oxo-3,4-dihydro-2H-benzo[b][1,4]oxazin-8-yl)ethylamino)ethyl)-3-(3-(3-((4-(2-isopropylthiazole-4-carbonyl)-1-oxa-4,9-diazaspiro[5.5]undecan-9-yl)methyl)phenyl)propoxy)propanamide ditrifluoroacetate]	316 nM	0.9	< 0.0501 nM
CC(C)c1nc(C(=O)N2CCOC3(CCN(Cc4cccc(CCCCOCCC(=O)N(CCNCCc5ccc(O)c6c5OCC(=O)N6)C5CCCCC5)c4)CC3)C2)cs1 [Example 58, N-Cyclohexyl-N-(2-(2-(5-hydroxy-3-oxo-3,4-dihydro-2H-benzo[b][1,4]oxazin-8-yl)ethylamino)ethyl)-3-(4-(3-((4-(2-Isopropylthiazole-4-carbonyl)-1-oxa-4,9-diazaspiro[5.5]undecan-9-yl)methyl)phenyl)butoxy)propanamide ditrifluoroacetate]	100 nM	0.9	0.0631 nM
CC(C)c1nc(C(=O)N2CCOC3(CCN(Cc4cccc(OCCOCCC(=O)N(CCNCCc5ccc(O)c6c5OCC(=O)N6)C5CCCCC5)c4)CC3)C2)cs1 [Example 59, N-Cyclohexyl-N-(2-(2-(5-hydroxy-3-oxo-3,4-dihydro-2H-benzo[b][1,4]oxazin-8-yl)ethylamino)ethyl)-3-(2-(3-((4-(2-isopropylthiazole-4-carbonyl)-1-oxa-4,9-diazaspiro[5.5]undecan-9-yl)methyl)phenoxy)ethoxy)propanamide ditrifluoroacetate]	631 nM	0.9	0.251 nM
CC(C)c1nc(C(=O)N2CCOC3(CCN(Cc4cccc(OCCCOCCC(=O)N(CCNCCc5ccc(O)c6c5OCC(=O)N6)C5CCCCC5)c4)CC3)C2)cs1 [Example 60, N-Cyclohexyl-N-(2-(2-(5-hydroxy-3-oxo-3,4-dihydro-2H-benzo[b][1,4]oxazin-8-yl)ethylamino)ethyl)-3-(3-(3-((4-(2-isopropylthiazole-4-carbonyl)-1-oxa-4,9-diazaspiro[5.5]undecan-9-yl)methyl)phenoxy)propoxy)propanamide ditrifluoroacetate]	50.1 nM	0.7	0.2 nM
CCN(CCNCCc1ccc(O)c2[nH]c(=O)sc12)C(=O)CCOCCc1cccc(OCCCN2CCC3(CC2)CN(C(=O)c2csc(C(C)C)n2)CCO3)c1 [Example 61, N-Ethyl-N-(2-(2-(4-hydroxy-2-oxo-2,3-dihydrobenzo[d]thiazol-7-yl)ethylamino)ethyl)-3-(3-(3-(4-(2-isopropylthiazole-4-carbonyl)-1-oxa-4,9-diazaspiro[5.5]undecan-9-yl)propoxy)phenethoxy)propanamide ditrifluoroacetate]	20 nM	0.7	2 nM
CCN(CCNCCc1ccc(O)c2[nH]c(=O)sc12)C(=O)CCOCCc1ccc(OCCCN2CCC3(CC2)CN(C(=O)c2csc(C(C)C)n2)CCO3)cc1 [Example 62, N-Ethyl-N-(2-(2-(4-hydroxy-2-oxo-2,3-dihydrobenzo[d]thiazol-7-yl)ethylamino)ethyl)-3-(4-(3-(4-(2-isopropylthiazole-4-carbonyl)-1-oxa-4,9-diazaspiro[5.5]undecan-9-yl)propoxy)phenethoxy)propanamide ditrifluoroacetate]	100 nM	0.7	0.794 nM
CC(C)c1nc(C(=O)N2CCOC3(CCN(CCc4cc(CCOCCC(=O)N(CCNCCc5ccc(O)c6c5OCC(=O)N6)C5CCCCC5)cs4)CC3)C2)cs1 [Example 63, N-Cyclohexyl-N-(2-(2-(5-hydroxy-3-oxo-3,4-dihydro-2H-benzo[b][1,4]oxazin-8-yl)ethylamino)ethyl)-3-(2-(5-(2-(4-(2-isopropylthiazole-4-carbonyl)-1-oxa-4,9-diazaspiro[5.5]undecan-9-yl)ethyl)thiophen-3-yl)ethoxy)propanamide ditrifluoroacetate]	158 nM	1.1	2 nM
Cc1c(CCOCCC(=O)N(CCNCCc2ccc(O)c3c2OCC(=O)N3)C2CCCC2)cccc1CN1CCC2(CC1)CN(C(=O)c1csc(C(C)C)n1)CCO2 [Example 64, N-Cyclopentyl-N-(2-(2-(5-hydroxy-3-oxo-3,4-dihydro-2H-benzo[b][1,4]oxazin-8-yl)ethylamino)ethyl)-3-(3-((4-(2-isopropylthiazole-4-carbonyl)-1-oxa-4,9-diazaspiro[5.5]undecan-9-yl)methyl)-2-methylphenethoxy)propanamide ditrifluoroacetate]	20 nM	1.0	2.51 nM
CCCCN(CCNCCc1ccc(O)c2c1OCC(=O)N2)C(=O)CCOCCc1cc(C)cc(CN2CCC3(CC2)CN(C(=O)c2csc(C(C)C)n2)CCO3)c1 [Example 65, N-Butyl-N-(2-(2-(5-hydroxy-3-oxo-3,4-dihydro-2H-benzo[b][1,4]oxazin-8-yl)ethylamino)ethyl)-3-(3-((4-(2-isopropylthiazole-4-carbonyl)-1-oxa-4,9-diazaspiro[5.5]undecan-9-yl)methyl)-5-methylphenethoxy)propanamide ditrifluoroacetate]	63.1 nM	1.0	0.501 nM
CCN(CCNCCc1ccc(O)c2[nH]c(=O)sc12)C(=O)CCOCCCc1cccc(CN2CCC3(CC2)CN(C(=O)c2csc(C(C)C)n2)CCO3)c1F [Example 66, N-Ethyl-3-(3-(2-fluoro-3-((4-(2-isopropylthiazole-4-carbonyl)-1-oxa-4,9-diazaspiro[5.5]undecan-9-yl)methyl)phenyl)propoxy)-N-(2-(2-(4-hydroxy-2-oxo-2,3-dihydrobenzo[d]thiazol-7-yl)ethylamino)ethyl)propanamide ditrifluoroacetate]	251 nM	0.5	0.501 nM
